Reference: PMC10182041, “A first-in-class inhibitor of Hsp110 molecular chaperones of pathogenic fungi” (Nature Communications, 2023)

Columns and labels:
Sse1 = target: T1, Sse1 (Saccharomyces cerevisiae, UniProt P32589); experiment: reduction of ATP-FAM binding to purified Sse1, fluorescence polarization; assay type: biochemical
T1 sequence (P32589 1-693): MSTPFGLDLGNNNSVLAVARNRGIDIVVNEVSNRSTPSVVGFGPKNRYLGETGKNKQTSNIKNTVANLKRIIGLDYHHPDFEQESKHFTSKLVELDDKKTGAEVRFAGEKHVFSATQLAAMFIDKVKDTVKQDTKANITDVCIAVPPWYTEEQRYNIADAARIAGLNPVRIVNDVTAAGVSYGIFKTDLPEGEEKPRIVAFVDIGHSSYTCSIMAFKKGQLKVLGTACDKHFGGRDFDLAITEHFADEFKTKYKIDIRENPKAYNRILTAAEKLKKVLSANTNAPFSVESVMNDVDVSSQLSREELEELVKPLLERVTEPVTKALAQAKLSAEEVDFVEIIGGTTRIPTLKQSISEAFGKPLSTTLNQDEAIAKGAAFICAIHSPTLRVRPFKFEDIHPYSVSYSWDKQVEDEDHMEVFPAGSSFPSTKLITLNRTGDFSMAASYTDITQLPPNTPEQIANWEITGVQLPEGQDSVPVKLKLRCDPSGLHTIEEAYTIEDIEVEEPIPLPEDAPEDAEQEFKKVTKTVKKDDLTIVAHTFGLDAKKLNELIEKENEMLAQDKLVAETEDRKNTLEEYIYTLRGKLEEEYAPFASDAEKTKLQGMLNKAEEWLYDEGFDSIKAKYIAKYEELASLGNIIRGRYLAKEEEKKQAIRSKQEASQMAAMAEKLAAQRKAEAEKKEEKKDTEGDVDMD

Msi3 [1] = target: Msi3 (Candida albicans, UniProt Q96VB9, I164D); experiment: luciferase aggregation (holdase) assay at OD320 with purified mutant; assay type: biochemical
Chain of Msi3 (Candida albicans, UniProt Q96VB9, I164D) (Q96VB9 whole entry I164D): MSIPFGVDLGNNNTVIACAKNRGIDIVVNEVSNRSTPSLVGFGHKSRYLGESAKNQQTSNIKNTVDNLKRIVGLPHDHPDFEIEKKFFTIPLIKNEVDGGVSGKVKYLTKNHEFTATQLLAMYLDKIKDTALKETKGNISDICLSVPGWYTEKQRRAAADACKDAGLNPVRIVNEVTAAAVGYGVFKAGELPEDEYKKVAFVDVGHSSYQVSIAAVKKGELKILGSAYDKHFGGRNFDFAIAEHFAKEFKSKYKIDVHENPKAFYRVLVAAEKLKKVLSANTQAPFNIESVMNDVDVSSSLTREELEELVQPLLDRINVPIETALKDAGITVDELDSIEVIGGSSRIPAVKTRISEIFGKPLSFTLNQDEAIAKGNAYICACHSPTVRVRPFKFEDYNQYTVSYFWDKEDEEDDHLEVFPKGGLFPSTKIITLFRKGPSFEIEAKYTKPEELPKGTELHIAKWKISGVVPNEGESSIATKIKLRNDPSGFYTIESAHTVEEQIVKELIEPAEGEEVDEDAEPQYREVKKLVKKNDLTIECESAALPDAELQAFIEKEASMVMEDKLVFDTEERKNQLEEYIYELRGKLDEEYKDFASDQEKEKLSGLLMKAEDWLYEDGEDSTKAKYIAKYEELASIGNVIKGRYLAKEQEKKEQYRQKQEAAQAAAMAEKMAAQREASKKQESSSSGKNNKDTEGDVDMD

Msi3 [2] = target: Msi3 (Candida albicans, UniProt Q96VB9); experiment: IC50 from the luciferase holdase assay; assay type: biochemical
Chain of Msi3 (Candida albicans, UniProt Q96VB9) (Q96VB9 whole entry): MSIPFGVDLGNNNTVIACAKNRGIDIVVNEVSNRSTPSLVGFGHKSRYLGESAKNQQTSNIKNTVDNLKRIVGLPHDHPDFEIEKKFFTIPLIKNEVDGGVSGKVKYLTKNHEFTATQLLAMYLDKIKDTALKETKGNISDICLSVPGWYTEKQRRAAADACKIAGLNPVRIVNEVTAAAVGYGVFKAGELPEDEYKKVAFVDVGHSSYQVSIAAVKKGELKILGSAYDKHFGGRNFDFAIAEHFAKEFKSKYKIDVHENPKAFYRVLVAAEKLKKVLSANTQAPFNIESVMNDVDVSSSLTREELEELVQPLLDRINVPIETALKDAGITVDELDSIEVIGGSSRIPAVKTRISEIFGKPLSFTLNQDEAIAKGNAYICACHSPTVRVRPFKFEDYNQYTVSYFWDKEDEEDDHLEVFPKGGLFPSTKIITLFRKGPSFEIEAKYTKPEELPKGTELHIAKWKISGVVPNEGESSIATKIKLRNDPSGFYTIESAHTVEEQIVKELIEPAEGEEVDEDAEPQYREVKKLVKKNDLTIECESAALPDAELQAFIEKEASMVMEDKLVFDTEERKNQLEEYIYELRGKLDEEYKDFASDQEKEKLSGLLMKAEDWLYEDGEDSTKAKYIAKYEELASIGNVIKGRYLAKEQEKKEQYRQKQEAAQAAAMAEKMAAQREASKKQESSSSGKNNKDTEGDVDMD

Ssa1 = Ssa1 (Saccharomyces cerevisiae, UniProt P10591); experiment: displacement of pre-bound ATP-FAM, fluorescence polarization; assay type: binding
Chain of Ssa1 (P10591 2-642): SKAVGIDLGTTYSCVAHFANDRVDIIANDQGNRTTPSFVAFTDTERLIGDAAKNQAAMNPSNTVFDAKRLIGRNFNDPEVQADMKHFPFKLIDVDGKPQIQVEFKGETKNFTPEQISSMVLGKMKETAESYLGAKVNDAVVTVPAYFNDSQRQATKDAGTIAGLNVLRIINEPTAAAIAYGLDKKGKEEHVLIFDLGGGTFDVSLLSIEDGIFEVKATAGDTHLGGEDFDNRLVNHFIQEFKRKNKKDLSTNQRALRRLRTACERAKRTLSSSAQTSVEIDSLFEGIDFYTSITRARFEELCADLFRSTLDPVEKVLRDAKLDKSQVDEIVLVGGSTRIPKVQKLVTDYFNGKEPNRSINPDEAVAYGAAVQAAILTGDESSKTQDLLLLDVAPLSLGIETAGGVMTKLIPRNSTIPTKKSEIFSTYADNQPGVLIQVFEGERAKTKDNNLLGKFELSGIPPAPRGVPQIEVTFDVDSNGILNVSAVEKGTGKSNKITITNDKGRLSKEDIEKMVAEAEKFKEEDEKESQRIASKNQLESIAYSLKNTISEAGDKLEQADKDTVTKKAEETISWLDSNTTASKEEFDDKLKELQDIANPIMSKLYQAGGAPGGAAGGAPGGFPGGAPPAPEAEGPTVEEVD

| SMILES | reduction of ATP-FAM binding to purified Sse1, fluorescence polarization (Sse1) | luciferase aggregation (holdase) assay at OD320 with purified mutant (Msi3 [1]) | IC50 (Msi3 [2]) | displacement of pre-bound ATP-FAM, fluorescence polarization (Ssa1) |
| --- | --- | --- | --- | --- |
| Cc1cccc(COc2nc3c(cc2-c2nc(N)cc(N)n2)c(C)nn3-c2ccccc2)c1 [2H, HLQ2H] | 2H showed a similar inhibition on Sse1 (Fig. S1a), the major Hsp110 from S. cerevisiae | A similar inhibition of holdase activity was observed for this mutant when treated with 2H (Fig. S6a) | 5.02 ± 0.35 µM |  |
| Nc1ncnc2c1ncn2[C@@H]1O[C@H](COP(=O)(O)OP(=O)(O)OP(=O)(O)O)[C@@H](O)[C@H]1O [ATP] |  |  |  | suggesting that the pre-bound ATP-FAM was slowly replaced by the regular ATP |
